In patent publication US9040523B2, “Antifungal 5,6-dihydro-4H-pyrrolo[1,2-α][1,4]-benzodiazepines and 6H-pyrrolo[1,2-α][1,4]benzodiazepines substituted with benzene derivatives” (JANSSEN PHARMACEUTICA NV, priority 2010, dated 2015):

Columns and labels:
[1] = system: Candida parapsilosis B66126; experiment: Antifungal activity in vitro (resazurin susceptibility screen), Inf. D; assay type: cell-based; conditions: Lodderomyces parapsilosis; Candida parapsilosis B66126; 37 °C, 24 hours, resa time 4 hours; read-out: Inf. D pIC50 (converted)
How it was run: (§1)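 Each well was inoculated with 10^3 cfu of fungus onto dried, pre-spotted compound serial dilutions in RPMI-MOPS medium, with fungal growth read by resazurin. Growth was referenced to drug-free culture (100%) and medium-only (0%) controls on each plate.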

[2] = system: Sporothrix schenkii B62482; experiment: Antifungal activity in vitro (resazurin susceptibility screen), Inf. A; assay type: cell-based; conditions: Sporothrix, B62482, Sporothrix schenkii B62482; 27 °C, 4 days, resa time 24 hours; highest in-test concentration 64 μM; read-out: Inf. A pIC50 (converted)
How it was run: (§2)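 This resazurin susceptibility screen used wells inoculated with 10^3 cfu per 200 μl in RPMI-MOPS, dispensed onto test plates holding spotted compound dilutions. Growth was normalised between fungus without antifungal (100%) and medium alone (0%).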

[3] = system: Trichophyton rubrum B68183; experiment: Antifungal activity in vitro (resazurin susceptibility screen), Inf. C; assay type: cell-based; conditions: Trichophyton rubrum B68183; 27 °C, 7 days, resa time 24 hours; read-out: Inf. C pIC50 (converted)
How it was run: as §2

[4] = target: CYP2C9 (Homo sapiens, UniProt P11712); experiment: Cytochrome P450 inhibition, Protocol A, cDNA expressed proteins, fluorogenic substrate; assay type: in vitro ADME; conditions: % inhibition at 10 μM; substrate MFC; cDNA expressed protein
How it was run: (§3)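 cDNA-expressed enzymes with fluorogenic substrates (three separate ones for CYP3A4) in sodium/potassium buffer pH 7.4 plus NADPH-generating system. Compounds at 1 nM to 10 μM final, prewarmed 5 min at 37° C, reaction started with NADP+, stopped, then fluorescence measured.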

[5] = target: CYP2D6 (Homo sapiens, UniProt P10635); experiment: as above; assay type: in vitro ADME; conditions: % inhibition at 10 μM; substrate AMMC; cDNA expressed protein
How it was run: as §3

[6] = target: T1, CYP1A2 (Homo sapiens, UniProt P05177); experiment: as above; assay type: in vitro ADME; conditions: % inhibition at 10 μM; substrate CEC; cDNA expressed protein
T1 sequence (P05177 1-516): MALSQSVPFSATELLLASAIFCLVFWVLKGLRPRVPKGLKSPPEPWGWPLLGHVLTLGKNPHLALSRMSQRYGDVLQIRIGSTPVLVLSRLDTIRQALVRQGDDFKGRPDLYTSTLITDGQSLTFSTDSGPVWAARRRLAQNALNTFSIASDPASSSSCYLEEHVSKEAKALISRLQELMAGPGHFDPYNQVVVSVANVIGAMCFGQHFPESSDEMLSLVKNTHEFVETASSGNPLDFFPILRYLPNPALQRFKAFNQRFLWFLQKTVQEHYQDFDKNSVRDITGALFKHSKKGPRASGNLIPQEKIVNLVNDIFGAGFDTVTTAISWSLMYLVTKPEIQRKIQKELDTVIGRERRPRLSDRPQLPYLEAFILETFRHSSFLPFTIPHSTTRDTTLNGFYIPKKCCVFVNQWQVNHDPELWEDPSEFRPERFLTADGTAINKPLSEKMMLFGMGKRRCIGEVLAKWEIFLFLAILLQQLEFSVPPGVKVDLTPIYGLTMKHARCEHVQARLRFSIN
How it was run: as §3

[7] = system: Aspergillus fumigatus B42928; experiment: Antifungal activity in vitro (resazurin susceptibility screen), Inf. E; assay type: cell-based; conditions: Aspergillus fumigatus B42928; 27 °C, 48 hours, resa time 17 hours; read-out: Inf. E pIC50 (converted)
How it was run: as §2

[8] = system: Trichophyton mentagrophytes B70554; experiment: Antifungal activity in vitro (resazurin susceptibility screen), Inf. G; assay type: cell-based; conditions: Trichophyton mentagrophytes, B70554, Trichophyton mentagrophytes B70554; 27 °C, 7 days, resa time 24 hours; read-out: Inf. G pIC50 (converted)
How it was run: as §1

[9] = system: Microsporum canis B68128; experiment: Antifungal activity in vitro (resazurin susceptibility screen), Inf. B; assay type: cell-based; conditions: Microsporum canis, B68128, Microsporum canis B68128; 27 °C, 9 days, resa time 24 hours; read-out: Inf. B pIC50 (converted)
How it was run: as §1

[10] = Liver metabolic stability assay, hLM; assay type: in vitro ADME, human; conditions: human liver microsomes, 1 mg protein/ml, 5 μM test compound, 15 min, 37 °C
Method: (§4) Liver preparations (microsomal fractions) were obtained from BD Gentest (San Jose, Calif., US). Metabolic stability was assessed using the following assay conditions. […] The mixture was pre-incubated at 37° C. for 5 min and the enzymatic reaction was started by addition of 5 μM test compound. After 0 (control) and 15 minutes (min), the reactions were terminated by addition of […] (500 μl). The precipitated material was removed by centrifugation at 1200 g for 10 min. The supernatant was analysed by LC-MS/MS on a ThermoFinnigan LCQ Deca XP ion-trap mass spectrometer equipped with an atmospheric pressure chemical ionisation source. Calculation of %-compound remaining was as described by Kantharaj et al. 2003 ((Kantharaj E., Tuytelaars A, Proost P E A, Ongel Z, van […] (2003). Simultaneous measurement of drug metabolic stability and identification of metabolites using ion-trap mass spectrometry.

[11] = Liver metabolic stability assay, gpLM; assay type: in vitro ADME, guinea pig; conditions: guinea pig microsomes, 1 mg protein/ml, 5 μM test compound, 15 min, 37 °C
Method: as §4

[12] = Liver metabolic stability assay, mLM; assay type: in vitro ADME; conditions: mouse liver microsomes, 1 mg protein/ml, 5 μM test compound, 15 min, 37 °C
Method: as §4

[13] = system: Cryptococcus neoformans B66663; experiment: Antifungal activity in vitro (resazurin susceptibility screen), Inf. F; assay type: cell-based; conditions: Cryptococcus neoformans, B66663, Cryptococcus neoformans B66663; 37 °C, 24 hours, resa time 4 hours; read-out: Inf. F pIC50 (converted)
How it was run: as §2

[14] = target: CYP3A4 (Homo sapiens, UniProt P08684); experiment: Cytochrome P450 inhibition, Protocol A, cDNA expressed proteins, fluorogenic substrates; assay type: in vitro ADME; conditions: % inhibition at 10 μM, cDNA expressed protein
How it was run: as §3

[15] = system: Rhizopus oryzae IHEM5223; experiment: Antifungal activity in vitro (resazurin susceptibility screen), Inf. J; assay type: cell-based; conditions: Rhizopus arrhizus, 37 °C, 24 hours, resa time 6 hours, read-out: Inf. J pIC50 (converted)
Method: (§5) The standard susceptibility screen was performed in 96-well plates (U-bottom, Greiner Bio-One). […] These serial dilutions (10 n1) were then spotted onto test-plates that could be stored in the dark at 4° C. for a maximum period of 2 weeks. […] The different fungal species/isolates (Table 3a) were cryopreserved and 1/1000 diluted in medium just prior to use. A standard inoculum of 200 μl containing 10^3 colony-forming unit (cfu) was then added to each well. A positive control (100% growth=fungal culture without antifungal) and a negative control (0% growth ═RPMI-MOPS medium) were included on each plate. […] [table]

[16] = system: Rhizomucor miehei IHEM13391; experiment: Antifungal activity in vitro (resazurin susceptibility screen), Inf. K; assay type: cell-based; conditions: 37 °C, 48 hours, resa time 17 hours, read-out: Inf. K pIC50 (converted)
Method: as §5

[17] = system: Scedosporium apiospermum IHEM3817; experiment: Antifungal activity in vitro (resazurin susceptibility screen), Inf. H; assay type: cell-based; conditions: 37 °C, 48 hours, resa time 17 hours, read-out: Inf. H pIC50 (converted)
Method: as §5

[18] = system: Scedosporium prolificans IHEM21157; experiment: Antifungal activity in vitro (resazurin susceptibility screen), Inf. I; assay type: cell-based; conditions: Lomentospora prolificans, 37 °C, 48 hours, resa time 17 hours, read-out: Inf. I pIC50 (converted)
Method: as §5

[19] = system: Mucor circinelloides IHEM21105; experiment: Antifungal activity in vitro (resazurin susceptibility screen), Inf. L; assay type: cell-based; conditions: 27 °C, 48 hours, resa time 17 hours, read-out: Inf. L pIC50 (converted)
Method: as §5

[20] = target: Cytochrome P450 2D6 (Homo sapiens, UniProt P10635); experiment: Human liver microsomal cytochrome P450 cocktail inhibition assay, Protocol C; conditions: 2D6_Dextro pIC50, human liver microsomes 0.2 mg/ml; probe dextromethorphan 3 microM
Method: (§6) Probe substrates and final assay concentrations with the appropriate internal standard are outlined in Table 6a.
(§7) Assays were performed in 0.1 M phosphate buffer (pH 7.4), containing 0.2 mg/ml human liver microsomes (BD Gentest) and a probe substrate mix consisting of: phenacetin, tolbutamide, S-mephenyloin, dextromethorphan, amodiaquine and midazolam (Table 6a) and a range of test compound concentrations (0 to 30 micromolar) in a total volume of 100 microliters. After a 10 min pre-incubation at 37° C., the reaction was started with addition of NADPH at a final concentration of 1.0 mM. […] The samples are centrifuged for 10 min at 4° C. at 4000 rpm and 60 microliters supernatant is diluted with 180 microliters water. Each sample is injected onto a UPLC/MS system for the simultaneous measurement of the probe substrate metabolites and their associated deuterated internal standards. Percentage inhibition is calculated according to: %-inhibition=(1−Ri/R)*100, whereby Ri and R are the metabolite to internal standard peak area ratios in the presence and absence of inhibitor respectively.
(§8) Percentage inhibition data are plotted against the Log transformed test compound concentration and after curve fitting the IC50-value is determined.

[21] = target: Cytochrome P450 2C19 (Homo sapiens, UniProt P33261); experiment: as above; conditions: 2C19_S-Meph pIC50, human liver microsomes 0.2 mg/ml; probe S-mephenytoin 30 microM
Method: as §6, §7, §8

[22] = target: Cytochrome P450 2C9 (Homo sapiens, UniProt P11712); experiment: as above; conditions: 2C9 Tolbut pIC50, human liver microsomes 0.2 mg/ml; probe tolbutamide 100 microM
Method: as §6, §7, §8

[23] = target: T2, Cytochrome P450 1A2 (Homo sapiens, UniProt P05177); experiment: as above; conditions: human liver microsomes 0.2 mg/ml; probe phenacetin 80 microM
T2 sequence (P05177 1-516): T1 sequence (P05177 1-516)
Method: as §6, §7, §8

[24] = target: CYP3A4/5 (Homo sapiens, UniProt P08684); experiment: in vitro; conditions: liver microsomes, pH 7.4, probe midazolam (2 microM)
Method: as §6
After a 10 min pre-incubation at 37° C., the reaction was started with addition of NADPH at a final concentration of 1.0 mM. […] The samples are centrifuged for 10 min at 4° C. at 4000 rpm and 60 microliters supernatant is diluted with 180 microliters water. Each sample is injected onto a UPLC/MS system for the simultaneous measurement of the probe substrate metabolites and their associated deuterated internal standards.
as §8

Chain of CYP3A4 (P08684 whole entry): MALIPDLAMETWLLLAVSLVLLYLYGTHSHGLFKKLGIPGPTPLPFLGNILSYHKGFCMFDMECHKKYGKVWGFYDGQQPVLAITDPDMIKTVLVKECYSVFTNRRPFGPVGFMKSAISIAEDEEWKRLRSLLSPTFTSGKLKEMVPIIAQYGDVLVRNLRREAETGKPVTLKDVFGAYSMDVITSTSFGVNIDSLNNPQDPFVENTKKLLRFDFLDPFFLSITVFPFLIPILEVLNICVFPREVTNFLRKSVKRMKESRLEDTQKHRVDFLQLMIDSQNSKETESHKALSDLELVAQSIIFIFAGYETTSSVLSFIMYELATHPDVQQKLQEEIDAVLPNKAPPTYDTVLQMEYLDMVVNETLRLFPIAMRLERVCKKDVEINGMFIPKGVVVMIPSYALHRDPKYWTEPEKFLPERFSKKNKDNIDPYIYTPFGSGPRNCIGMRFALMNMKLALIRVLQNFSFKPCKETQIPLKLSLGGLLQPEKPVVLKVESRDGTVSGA
Chain of CYP3A4/5 (P08684 2-503): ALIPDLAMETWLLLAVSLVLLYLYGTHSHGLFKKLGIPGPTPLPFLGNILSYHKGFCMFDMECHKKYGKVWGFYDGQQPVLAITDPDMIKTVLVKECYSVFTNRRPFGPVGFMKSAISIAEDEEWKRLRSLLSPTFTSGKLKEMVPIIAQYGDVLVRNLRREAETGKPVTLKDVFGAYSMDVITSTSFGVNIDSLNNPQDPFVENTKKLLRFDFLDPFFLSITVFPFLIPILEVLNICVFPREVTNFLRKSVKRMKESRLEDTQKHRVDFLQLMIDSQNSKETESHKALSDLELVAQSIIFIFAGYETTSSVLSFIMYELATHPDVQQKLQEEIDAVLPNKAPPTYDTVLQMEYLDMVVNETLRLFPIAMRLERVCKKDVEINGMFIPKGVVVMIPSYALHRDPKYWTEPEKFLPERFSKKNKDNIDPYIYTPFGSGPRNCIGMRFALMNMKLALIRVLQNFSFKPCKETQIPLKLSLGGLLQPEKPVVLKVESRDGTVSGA
Chain of Cytochrome P450 2C19 (P33261 whole entry): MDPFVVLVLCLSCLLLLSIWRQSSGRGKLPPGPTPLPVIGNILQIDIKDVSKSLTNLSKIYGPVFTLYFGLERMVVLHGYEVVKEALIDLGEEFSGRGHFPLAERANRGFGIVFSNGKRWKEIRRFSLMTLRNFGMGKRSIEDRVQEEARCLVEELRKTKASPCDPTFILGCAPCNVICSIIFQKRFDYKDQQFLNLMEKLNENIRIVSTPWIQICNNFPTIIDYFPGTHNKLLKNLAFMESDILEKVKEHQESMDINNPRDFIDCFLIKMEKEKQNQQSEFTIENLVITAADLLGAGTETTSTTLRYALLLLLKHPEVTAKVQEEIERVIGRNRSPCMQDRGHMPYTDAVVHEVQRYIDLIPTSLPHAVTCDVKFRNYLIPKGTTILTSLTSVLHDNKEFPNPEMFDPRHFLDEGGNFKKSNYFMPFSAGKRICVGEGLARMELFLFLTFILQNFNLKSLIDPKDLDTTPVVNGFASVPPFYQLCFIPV
Chain of Cytochrome P450 2D6 (P10635 whole entry): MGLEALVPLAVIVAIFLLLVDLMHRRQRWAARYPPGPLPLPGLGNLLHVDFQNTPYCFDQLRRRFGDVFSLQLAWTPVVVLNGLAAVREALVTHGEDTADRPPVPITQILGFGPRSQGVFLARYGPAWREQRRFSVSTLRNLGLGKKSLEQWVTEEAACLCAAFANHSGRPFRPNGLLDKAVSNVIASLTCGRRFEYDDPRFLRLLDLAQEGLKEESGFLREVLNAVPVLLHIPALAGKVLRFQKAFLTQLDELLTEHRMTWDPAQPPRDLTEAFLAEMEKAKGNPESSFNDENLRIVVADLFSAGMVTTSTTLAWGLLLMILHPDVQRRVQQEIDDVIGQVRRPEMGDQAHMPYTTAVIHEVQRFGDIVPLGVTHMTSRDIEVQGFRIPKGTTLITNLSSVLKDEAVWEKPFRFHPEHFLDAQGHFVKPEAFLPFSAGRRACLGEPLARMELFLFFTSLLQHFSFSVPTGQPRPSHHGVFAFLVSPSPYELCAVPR
Chain of CYP2D6 (P10635 whole entry): as above
Chain of Cytochrome P450 2C9 (P11712 whole entry): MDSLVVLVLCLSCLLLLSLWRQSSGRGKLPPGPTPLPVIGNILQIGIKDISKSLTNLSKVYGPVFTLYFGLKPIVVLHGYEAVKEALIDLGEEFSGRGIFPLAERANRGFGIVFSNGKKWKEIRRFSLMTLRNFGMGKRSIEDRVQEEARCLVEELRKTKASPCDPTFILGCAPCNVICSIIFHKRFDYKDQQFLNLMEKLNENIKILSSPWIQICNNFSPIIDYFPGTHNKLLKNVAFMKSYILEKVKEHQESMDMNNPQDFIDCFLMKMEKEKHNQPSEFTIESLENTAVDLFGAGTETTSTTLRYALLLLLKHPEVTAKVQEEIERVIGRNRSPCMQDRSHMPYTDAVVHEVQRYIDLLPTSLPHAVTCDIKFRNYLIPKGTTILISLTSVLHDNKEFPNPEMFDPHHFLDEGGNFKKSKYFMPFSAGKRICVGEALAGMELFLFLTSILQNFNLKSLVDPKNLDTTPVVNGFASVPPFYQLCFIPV
Chain of CYP2C9 (P11712 whole entry): as above

Structure (SMILES): CC(=O)c1ccc(C2=NCc3cc(Cl)cc(Cl)c3-n3cccc32)cc1 [Compound 26, 1-[4-(8,10-dichloro-6H-pyrrolo[1,2-a][1,4]benzodiazepin-4-yl)phenyl]-ethanone]
- IC50 [1]: > 63100 nM
- IC50 [2]: 1260 nM
- IC50 [3]: 79.4 nM
- hCYP2C9_MFC_Pct_Inh [4]: 69%
- hCYP2D6_AMMC_Pct_Inh [5]: 74%
- hCYP1A2_CEC_Pct_Inh [6]: 34%
- melting point: 183.6 to 186.7 °C
- IC50 [7]: 1580 nM
- IC50 [8]: 3980 nM
- IC50 [9]: 631 nM
- %-compound metabolised_Met_hLM [10]: 19%
- %-compound metabolised Met_gpLM [11]: 44%
- %-compound metabolised Met_mLM [12]: 45%
- IC50 [13]: 10000 nM
- hCYP3A4_BFC_Pct_Inh ([14]; substrate BFC): 33%
- hCYP3A4_BQ_Pct_Inh ([14]; substrate BQ): 32%
- hCYP3A4_DBF_Pct_Inh ([14]; substrate DBF): 55%

Structure (SMILES): CS(=O)(=O)c1ccc(C2=NCc3c(Cl)cccc3-n3cccc32)cc1 [Compound 28, 7-chloro-4-[4-(methylsulfonyl)phenyl]-6H-pyrrolo[1,2-a][1,4]benzodiazepine]
- IC50 [15]: > 63100 nM
- IC50 [1]: > 63100 nM
- IC50 [2]: > 63100 nM
- IC50 [16]: > 63100 nM
- IC50 [3]: 2000 nM
- IC50 [17]: > 63100 nM
- melting point: 218.5 to 219.9 °C
- IC50 [7]: > 63100 nM
- IC50 [18]: 7940 nM
- IC50 [8]: 2510 nM
- IC50 [9]: 1260 nM
- %-compound metabolised_Met_hLM [10]: 2%
- %-compound metabolised Met_gpLM [11]: 21%
- %-compound metabolised Met_mLM [12]: 41%
- IC50 [19]: > 63100 nM
- IC50 [13]: > 63100 nM

Structure (SMILES): Br.CC(=O)c1ccc(C2NCc3c(Cl)cccc3-n3cccc32)cc1 (centres unmarked) [drawing 96]
- IC50 [20]: 2000 nM
- IC50 [21]: 1260 nM
- IC50 [22]: 2510 nM
- 1A2_Phen pIC50 [23]: <5.0
- IC50 at 10 min [24]: 5010 nM
